Data taken from publication PMC12326981, “Novel C5α-substituted carbapenems enhance Mycobacterium abscessus killing via selective target binding and reduced hydrolysis by BlaMab” (Antimicrobial Agents and Chemotherapy, 2025).

Columns and labels:
Mab ATCC 19977 [1] = experiment: MIC testing against Mab ATCC 19977, single agent and combinations; type: cell-based, Mycobacterium abscessus
Description: MICs were determined in duplicate following Clinical Laboratory Standards Institute ([52]) guidelines using Middlebrook 7H9 broth supplemented with 10% (vol/vol) oleic acid-albumin-dextrose-catalase (OADC) and 0.05% (vol/vol) Tween 80, with an inoculum of 5 × 10⁵ CFU/mL. MIC testing of two C5α-substituted carbapenems was conducted both individually and in combination with cephalosporins (cefuroxime and ceftaroline), penicillins (amoxicillin), or BLIs (avibactam or durlobactam + sulbactam). Avibactam, durlobactam, cefuroxime, ceftaroline, and amoxicillin were fixed at concentrations of 4, 1, 2, 4, and 4 mg/L, respectively. […] The MIC was defined as the lowest antibiotic concentration that inhibited visible bacterial growth following 48 h of incubation at 30°C.

PonA2 = PonA2 (Mycobacteroides abscessus, UniProt B1MFV7); experiment: Apparent inhibition constant (nitrocefin, Dixon plot); type: biochemical, Mycobacterium abscessus; details: Ki,app
PonA2, sequence (B1MFV7 entry or part of it): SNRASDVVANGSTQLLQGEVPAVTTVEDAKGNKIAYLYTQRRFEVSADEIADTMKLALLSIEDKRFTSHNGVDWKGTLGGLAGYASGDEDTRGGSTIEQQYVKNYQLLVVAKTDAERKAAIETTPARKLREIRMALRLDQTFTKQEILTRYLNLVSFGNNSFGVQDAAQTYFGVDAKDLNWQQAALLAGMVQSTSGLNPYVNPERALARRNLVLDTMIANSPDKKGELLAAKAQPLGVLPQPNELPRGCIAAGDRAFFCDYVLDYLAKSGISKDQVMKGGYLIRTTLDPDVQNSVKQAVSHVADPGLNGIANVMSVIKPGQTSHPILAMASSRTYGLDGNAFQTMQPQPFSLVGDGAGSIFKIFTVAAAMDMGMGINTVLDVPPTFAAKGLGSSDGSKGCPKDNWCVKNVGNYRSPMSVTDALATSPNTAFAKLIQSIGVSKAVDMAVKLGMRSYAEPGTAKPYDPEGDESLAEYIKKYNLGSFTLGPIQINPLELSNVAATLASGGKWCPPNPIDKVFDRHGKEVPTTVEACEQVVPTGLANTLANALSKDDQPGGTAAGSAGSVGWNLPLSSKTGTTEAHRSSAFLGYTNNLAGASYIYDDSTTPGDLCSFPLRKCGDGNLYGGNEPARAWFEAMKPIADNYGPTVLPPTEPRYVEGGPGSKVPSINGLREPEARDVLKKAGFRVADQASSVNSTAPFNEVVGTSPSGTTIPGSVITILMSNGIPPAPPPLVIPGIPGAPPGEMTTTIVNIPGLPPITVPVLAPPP
Description: (§1) Steady-state kinetic studies with JDB/NA-1-157 and JDB/NA-1-208 were performed using purified LDTs and PBPs, including LDT1–5, PBP-B, PBP-lipo, and D,D-carboxypeptidase. The assays were conducted on a BioTek Synergy2 multimode reader equipped with Gen5 software. To determine the Michaelis constant (Km^NCF) for each LDT and PBP, a wide range of NCF concentrations was tested, while the enzyme concentrations were fixed. Absorbance changes at 482 nm were monitored over 10 min. Steady-state kinetic parameters (Vmax and Km) were derived by fitting the experimental data to the Henri–Michaelis–Menten equation using nonlinear least-squares regression in GraphPad Prism version 9. The reaction velocity (v) at a given substrate concentration ([S]) was calculated using equation 2: […]
(§2) The apparent inhibition constants (Ki,app) for JDB/NA-1-157 and JDB/NA-1-208 were determined under the following conditions: an NCF concentration of 5 × Km, fixed concentrations of LDT or PBP enzymes, and varying concentrations of JDB/NA-1-157 and JDB/NA-1-208. Absorbance changes at 482 nm were monitored over a 30 min period for each inhibitor concentration. The data were linearized using a Dixon plot, which involves plotting the reciprocal of the absorbance change (1/ΔA) against the concentrations of JDB/NA-1-157 or JDB/NA-1-208. Apparent Ki,app values were derived from the intersection points on the Dixon plot and were subsequently corrected for substrate concentration and enzyme affinity using equation 3:
(§3) (3) Ki,app=observed Ki,app/1+[NCF]/Km NCF.

LDT5 = LDT5 (Mycobacteroides abscessus, UniProt B1MHQ4); experiment: as above; type: biochemical, Mycobacterium abscessus; details: read-out: Ki,app
LDT5, sequence (B1MHQ4 entry or part of it): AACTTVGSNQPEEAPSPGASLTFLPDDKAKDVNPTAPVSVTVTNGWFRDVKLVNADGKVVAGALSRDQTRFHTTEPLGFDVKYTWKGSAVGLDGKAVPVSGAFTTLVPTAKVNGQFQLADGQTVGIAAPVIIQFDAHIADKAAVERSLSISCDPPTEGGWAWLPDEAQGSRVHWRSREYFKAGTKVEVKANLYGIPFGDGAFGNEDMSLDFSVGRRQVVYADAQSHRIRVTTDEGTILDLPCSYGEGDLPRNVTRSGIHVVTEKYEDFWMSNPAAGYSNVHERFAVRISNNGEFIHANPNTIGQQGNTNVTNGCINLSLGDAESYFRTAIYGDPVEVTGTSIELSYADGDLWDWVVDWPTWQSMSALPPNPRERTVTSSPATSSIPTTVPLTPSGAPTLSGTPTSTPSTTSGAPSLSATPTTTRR
Description: as §1, §2, §3

[2] = system: Mab strain ATCC 19977 and three clinical isolates (Mab122, Mab686, and UH01); experiment: Static concentration time-kill (SCTK) assay; type: cell-based, Mycobacterium abscessus; details: imipenem alone (Fig. S1)
Description: SCTK studies were conducted over 5 days in Middlebrook 7H9 broth supplemented with 10% (vol/vol) OADC, 0.2% (vol/vol) glycerol, and 0.05% (vol/vol) Tween 80 in duplicate. The efficacy of JDB/NA-1-157 and JDB/NA-208 was evaluated using Mab strain ATCC 19977 and three clinical isolates (Mab122, Mab686, and UH01) at an initial inoculum of 10^5.5–10^6.3 CFU/mL. […] Bacterial killing was assessed across a wide range of concentrations for JDB/NA-1-157 and JDB/NA-1-208 individually (0.0625–64.0 mg/L).
For the combination study, the concentrations of JDB/NA-1-157 and JDB/NA-1-208 were selected based on MIC results and time-killing profiles of the single-drug study, while the concentrations of other β-lactams and BLIs were chosen based on clinically relevant levels, determined from the predicted average unbound steady-state concentrations (fCss,avg) in plasma at clinically relevant doses ([27]). The drug concentrations used were JDB/NA-1-157, 1 mg/L; JDB/NA-1-208, 8 mg/L; imipenem, 12 mg/L; ceftaroline, 8 mg/L; cefuroxime, 8 mg/L; amoxicillin, 2 mg/L; avibactam, 4 mg/L; durlobactam, 12 mg/L; amikacin, 12 mg/L; clarithromycin, 0.3 mg/L; and cefoxitin, 7 mg/L. The SOC regimen was included for comparison of efficacy. On day 3, the broth was replaced with fresh broth containing the corresponding drug concentrations. For viable cell counts, 100 µL of undiluted or appropriately diluted samples was subcultured on Middlebrook 7H10 agar plates supplemented with 1% (vol/vol) OADC, 0.2% glycerol, and 0.05% (vol/vol) Tween 80. All samples were washed twice with sterile 0.9% saline prior to serial dilution or plating.

Mab ATCC 19977 [3] = experiment: MIC testing with drugs pre-incubated in 7H9 broth (effect of drug instability); type: cell-based, Mycobacterium abscessus; details: for MIC: Mycobacteroides abscessus, ATCC19977
Description: MICs were determined in duplicate following Clinical Laboratory Standards Institute ([52]) guidelines using Middlebrook 7H9 broth supplemented with 10% (vol/vol) oleic acid-albumin-dextrose-catalase (OADC) and 0.05% (vol/vol) Tween 80, with an inoculum of 5 × 10⁵ CFU/mL. MIC testing of two C5α-substituted carbapenems was conducted both individually and in combination with cephalosporins (cefuroxime and ceftaroline), penicillins (amoxicillin), or BLIs (avibactam or durlobactam + sulbactam). Avibactam, durlobactam, cefuroxime, ceftaroline, and amoxicillin were fixed at concentrations of 4, 1, 2, 4, and 4 mg/L, respectively. Amoxicillin was combined with 4 mg/L avibactam, as it is highly susceptible to hydrolysis by BlaMab ([12], [15], [25]). The MIC was defined as the lowest antibiotic concentration that inhibited visible bacterial growth following 48 h of incubation at 30°C.

PBP B = PBP B (Mycobacteroides abscessus, UniProt B1MP31); experiment: Apparent inhibition constant (nitrocefin, Dixon plot); type: biochemical; details: read-out: Ki,app (converted)
PBP B, sequence (B1MP31 entry or part of it): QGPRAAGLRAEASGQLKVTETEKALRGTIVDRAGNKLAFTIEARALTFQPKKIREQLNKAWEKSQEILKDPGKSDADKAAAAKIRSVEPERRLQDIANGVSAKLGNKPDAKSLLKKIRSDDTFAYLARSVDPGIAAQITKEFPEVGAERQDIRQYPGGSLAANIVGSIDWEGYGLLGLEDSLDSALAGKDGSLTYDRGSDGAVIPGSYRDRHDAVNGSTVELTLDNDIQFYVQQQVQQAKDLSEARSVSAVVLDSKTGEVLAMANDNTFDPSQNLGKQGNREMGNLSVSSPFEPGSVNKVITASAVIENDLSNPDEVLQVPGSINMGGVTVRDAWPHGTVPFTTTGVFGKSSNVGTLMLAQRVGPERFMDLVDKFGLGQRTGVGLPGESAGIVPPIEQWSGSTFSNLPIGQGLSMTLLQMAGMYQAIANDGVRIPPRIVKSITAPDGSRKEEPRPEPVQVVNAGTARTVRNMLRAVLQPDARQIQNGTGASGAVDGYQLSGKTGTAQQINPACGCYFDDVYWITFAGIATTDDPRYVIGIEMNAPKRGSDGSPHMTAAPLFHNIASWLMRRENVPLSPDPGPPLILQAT
Description: as §1, §2, §3

PBP-lipo = biological target: T1, PBP-lipo (Mycobacteroides abscessus, UniProt B1MDC3); experiment: as above; type: biochemical; details: Ki,app
T1 construct: made in house; host or cells: Escherichia coli BL21 (DE3)
T1 sequence (B1MDC3 entry or part of it): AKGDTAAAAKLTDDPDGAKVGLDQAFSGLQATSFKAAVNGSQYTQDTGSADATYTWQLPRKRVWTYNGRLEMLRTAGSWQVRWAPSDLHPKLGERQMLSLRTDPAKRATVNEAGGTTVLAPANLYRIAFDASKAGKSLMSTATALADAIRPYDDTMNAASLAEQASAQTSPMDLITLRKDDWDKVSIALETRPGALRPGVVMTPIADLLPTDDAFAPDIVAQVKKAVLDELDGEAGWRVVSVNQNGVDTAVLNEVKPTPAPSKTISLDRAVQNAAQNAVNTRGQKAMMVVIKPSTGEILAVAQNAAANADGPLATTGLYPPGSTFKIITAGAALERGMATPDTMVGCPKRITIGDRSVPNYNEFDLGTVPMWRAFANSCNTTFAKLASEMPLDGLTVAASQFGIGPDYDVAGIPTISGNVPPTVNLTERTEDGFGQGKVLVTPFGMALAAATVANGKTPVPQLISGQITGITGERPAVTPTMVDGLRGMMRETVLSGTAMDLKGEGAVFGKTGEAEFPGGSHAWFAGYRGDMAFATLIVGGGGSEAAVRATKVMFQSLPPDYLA
Description: as §1, §2, §3

[4] = Thermal stability in 7H9 broth at 30°C; details: for Degradation percentage: 24 h
Description: The stability of the two compounds in 7H9 broth was assessed at 30°C at drug concentrations of 10, 50, and 100 mg/L, with each condition tested in triplicate. Absorbance at 240 nm was measured every 2 h over a 24 h period using a BioTek Synergy2 multimode reader, with data analyzed via Gen5 software to monitor degradation or changes in stability. To evaluate the impact of thermal instability, MIC tests were performed using Mab ATCC 19977. Compounds were tested at time points of 0 h (no incubation) and 6, 24, and 48 h of incubation at 30°C. Imipenem and meropenem, known to be thermally unstable β-lactams, were included as positive controls. The MIC results were recorded after 48 h of incubation. Detailed MIC testing protocols were identical to those described below.

LDT2 = LDT2 (Mycobacteroides abscessus, UniProt B1MMQ4); experiment: Apparent inhibition constant (nitrocefin, Dixon plot); type: biochemical, Mycobacterium abscessus; details: Ki,app
LDT2, sequence (B1MMQ4 entry or part of it): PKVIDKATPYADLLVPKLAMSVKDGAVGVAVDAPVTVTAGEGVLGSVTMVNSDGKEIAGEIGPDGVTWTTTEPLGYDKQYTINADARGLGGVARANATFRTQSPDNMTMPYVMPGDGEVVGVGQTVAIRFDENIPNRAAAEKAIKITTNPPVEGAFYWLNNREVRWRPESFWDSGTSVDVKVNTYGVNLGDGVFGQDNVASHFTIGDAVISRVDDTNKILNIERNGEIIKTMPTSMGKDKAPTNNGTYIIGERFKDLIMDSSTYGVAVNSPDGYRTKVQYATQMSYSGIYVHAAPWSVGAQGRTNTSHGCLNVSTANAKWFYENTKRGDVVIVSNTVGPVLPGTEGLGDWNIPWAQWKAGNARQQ
Description: as §1, §2, §3

LDT1 = LDT1 (Mycobacteroides abscessus, UniProt B1MDC1); experiment: as above; type: biochemical, Mycobacterium abscessus; details: Ki,app
LDT1, sequence (B1MDC1 entry or part of it): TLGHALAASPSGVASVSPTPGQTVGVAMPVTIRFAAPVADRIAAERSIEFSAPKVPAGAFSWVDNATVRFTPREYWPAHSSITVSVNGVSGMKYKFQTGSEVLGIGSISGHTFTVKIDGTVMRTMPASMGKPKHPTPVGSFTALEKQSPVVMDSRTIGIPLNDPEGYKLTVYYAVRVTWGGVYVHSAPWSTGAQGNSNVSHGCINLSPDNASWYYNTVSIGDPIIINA
Description: as §1, §2, §3

[5] = system: C[C@@H](O)[C@H]1C(=O)N2C(C(=O)O)=C(S[C@@H]3CN[C@H](C(=O)N(C)C)C3)C[C@]12C; experiment: Steady-state kinetics of hydrolysis by BlaMab; type: biochemical, Mycobacterium abscessus; details: other: best-fit value (95% confidence interval), MES buffer pH 6.4, room temperature
[6] = Mycobacteroides abscessus, ATCC19977, 48 h, alone (single agent), read-out: MIC
[7] = drug incubated 6 h in 7H9 broth at 30°C
[8] = drug incubated 24 h in 7H9 broth at 30°C
[9] = drug incubated 48 h in 7H9 broth at 30°C

Question: For `NC(=O)[C@@H]1CC[C@@H]2CN1C(=O)N2OS(=O)(=O)O` [AVI, avibactam, reference compound], which MIC (Mab ATCC 19977 [1]; [6]) is on record?
Answer: > 128 µg/mL

Question: For `CCO/N=C(\C(=O)N[C@@H]1C(=O)N2C(C(=O)[O-])=C(Sc3nc(-c4cc[n+](C)cc4)cs3)CS[C@H]12)c1nsc(N)n1` [CFT, ceftaroline, reference compound], which MIC (Mab ATCC 19977 [1]; [6]) is on record?
Answer: 16 µg/mL

Question: For `C[C@@H](O)[C@H]1C(=O)N2C(C(=O)O)=C(SCCN=CN)C[C@H]12` [IPM, imipenem], which Ki (PonA2) is on record?
Answer: 3.14 µM

Question: And the Ki (LDT5)?
Answer: 100 µM

Question: And the “log10 reduction in bacterial load” value [2]?
Answer: ~1.5 log10

Question: And the MIC (Mab ATCC 19977 [3]; [7])?
Answer: 1 µg/mL

Question: And the MIC (Mab ATCC 19977 [3]; [8])?
Answer: 32 µg/mL

Question: What about the MIC (Mab ATCC 19977 [3]; [9]) of the same compound?
Answer: > 64 µg/mL

Question: What about the MIC (Mab ATCC 19977 [3]; no incubation of drug) of the same compound?
Answer: 1 µg/mL

Question: And the “MIC fold increase after 24 h incubation” value (Mab ATCC 19977 [3]; drug incubated 24 h)?
Answer: 32 fold

Question: And the “MIC fold increase after 48 h incubation” value (Mab ATCC 19977 [3]; drug incubated 48 h)?
Answer: > 64 fold

Question: And the Ki (PBP B)?
Answer: 1.47 µM

Question: What about the Ki (PBP-lipo) of the same compound?
Answer: 1.84 µM

Question: And the “additional degradation by 24 h” value [4]?
Answer: approximately 25%

Question: What about the “degradation within the first 6 h” value [4] of the same compound?
Answer: approximately 25%

Question: What about the half-life ([4]; 7H9 broth) of the same compound?
Answer: 10 h

Question: What about the Degradation percentage ([4]; 10 mg/L) of the same compound?
Answer: 67.8%

Question: And the Degradation percentage ([4]; 50 mg/L)?
Answer: 51.4%

Question: And the Degradation percentage ([4]; 100 mg/L)?
Answer: 49.3%

Question: With `CC1(C)S[C@@H]2[C@H](NC(=O)[C@H](N)c3ccc(O)cc3)C(=O)N2[C@H]1C(=O)O` [AMX, amoxicillin, reference compound] as the compound, how does the MIC (Mab ATCC 19977 [1]; [6]) read?
Answer: 128 µg/mL

Question: What about the MIC (Mab ATCC 19977 [1]; no carbapenem, with AVI) of the same compound?
Answer: 32 µg/mL

Question: With `CO/N=C(\C(=O)N[C@@H]1C(=O)N2C(C(=O)O)=C(COC(N)=O)CS[C@H]12)c1ccco1` [CXM, cefuroxime, reference compound] as the compound, how does the MIC (Mab ATCC 19977 [1]; [6]) read?
Answer: 4 µg/mL

Question: For `C[C@@H](O)[C@H]1C(=O)N2C(C(=O)O)=C(S[C@@H]3CN[C@H](C(=O)N(C)C)C3)[C@H](C)[C@H]12` [MEM, meropenem], which Ki (LDT2) is on record?
Answer: 0.0313 µM

Question: What about the Ki (LDT1) of the same compound?
Answer: 0.206 µM

Question: What about the Ki (PonA2) of the same compound?
Answer: 0.143 µM

Question: And the MIC (Mab ATCC 19977 [3]; [7])?
Answer: 4 µg/mL

Question: What about the MIC (Mab ATCC 19977 [3]; [8]) of the same compound?
Answer: 16 µg/mL

Question: And the MIC (Mab ATCC 19977 [3]; [9])?
Answer: 16 µg/mL

Question: What about the MIC (Mab ATCC 19977 [3]; no incubation of drug) of the same compound?
Answer: 4 µg/mL

Question: And the “MIC rise after 24 and 48 h incubation vs nonincubated” value (Mab ATCC 19977 [3]; drug incubated 24 and 48 h)?
Answer: fourfold

Question: What about the Ki (PBP B) of the same compound?
Answer: 0.965 µM

Question: And the Degradation percentage ([4]; 10 mg/L)?
Answer: 11.7%

Question: What about the Degradation percentage ([4]; 50 mg/L) of the same compound?
Answer: 15.8%

Question: And the Degradation percentage ([4]; 100 mg/L)?
Answer: 16.1%

Question: With `CC1=C[C@@H]2CN(C(=O)N2OS(=O)(=O)O)[C@@H]1C(N)=O` [DUR, durlobactam, reference compound] as the compound, how does the MIC (Mab ATCC 19977 [1]; [6]) read?
Answer: 8 µg/mL

Question: Which Km [5] does the source give for “BlaMab (Mycobacteroides abscessus ATCC 19977)” here?
Answer: 9.054 (3.677–17.50) µM

Question: What about the kcat [5] of the same compound?
Answer: 0.03 s⁻¹

Question: And the kcat/Km [5]?
Answer: 3000 M⁻¹ s⁻¹
